In brackets after ≈: the same amount, converted by molar mass.

One assay relates to Perennial rye grass. Put plainly: Preliminary herbicide seed germination test (pre-emergent), perennial rye grass. The format is in vivo, Solium perenne. Also noted: key: 5: no seedling emerged; 4: few seedlings emerged and/or very severe stunting; 3: moderate reduction in stand and/or moderate stunting.; 2: very slight reduction in stand and/or slight stunting; 1: no injury, seedlings appear no different with respect to stand or growth than untreated controls. Conditions: ten to twelve days after application. How it is done:
(§1) Suspensions of the test compounds were prepared by dissolving one gram of compound in 50 milliliters of acetone in which had been dissolved 0.1 gram (10 percent of the weight of compound) of an alkylphenoxyethanol sufactant, as an emulsifying or dispersing agent. The resulting solution was mixed into 160 milliliters of water to give roughly 200 milliliters of a suspension containing the compound in finely divided form. The thus prepared stock suspension contained 0.5 percent by weight of compound. The test concentrations employed in the tests described below were obtained by diluting the stock suspension with water. The test procedures were as follows:
The following seeds were used in this test:
Perennial rye grass--Solium perenne
Two […] mixtures were prepared as follows:
Each of the above mixtures was rolled separately in 5 gallon containers for approximately one-half hour on ball mill to insure uniform mixing of seeds and soil. For each compound four 3-inch pots were filled with soil to within 11/2 inches of top of pots. To two of these pots were added 70 cc. of Mixture I. To the remaining 2 pots were added 70 cc. of Mixture II. The seed-soil mixture was tamped firmly, and the pots were removed to the greenhouse and watered lightly. About 2 hours after planting, 25 milliliters of the test formulation were added to one pot containing Mixture I and one pot containing Mixture II. An equal volume of a water solution containing acetone and an emulsifier in the same concentration as the herbicidal mixture but without the candidate herbicide was also added to each of the soil-seed mixtures. These pots are used as check or control units. The test compounds were formulated by diluting the stock suspension with water to obtain the desired concentration of the compound in parts per million of the final formulation. Each compound was tested at the same concentration. […] Ratings were made according to the following designations: […]

Another assay concerns Tomato. The assay is described as follows: Post-emergent herbicidal test, tomato. Also noted: key: 1: no perceptible injury; 2: intermediate degrees of injury; 3: intermediate degrees of injury; 4: intermediate degrees of injury; 5: the plant was dead. Conditions: 2500 parts per million, after ten days; for Post-emergent Herbicidal, Tomato: Table II; for Post Emergent Herbicidal, Tomato: Table III. The assay is classed as in vivo. As to the method: as §1
(§2) Experiments were also conducted to determine the phytotoxicity of representative compositions with respect to healthy fresh plants. Solutions of the compounds were prepared as described above to provide a concentration of 2500 parts per million of the test compound. The test plants were sprayed in accordance with the procedure described above for the Mite Foliage Spray Test so as to deliver approximately 100 milliliters of test solutions to the leaves of each plant tested. The sprayed plants and controls were set aside for approximately one hour to allow the solutions to dry and were then placed in the greenhouse. After ten days the plants were visually inspected to determine the extent of foliage injury. A rating of 1 indicates no perceptible injury; 5 indicates the plant was dead and ratings of 2, 3 and 4 indicate intermediate degrees of injury based upon the number and extent to which leaves were injured.

For the next assay, the system named is Cotton. Put plainly: Post-emergent herbicidal test, cotton. The settings on record: 2500 parts per million, after ten days; for Post-emergent Herbicidal, Cotton: Table II; for Post Emergent Herbicidal, Cotton: Table III. Also on record: key: 1: no perceptible injury; 2: intermediate degrees of injury; 3: intermediate degrees of injury; 4: intermediate degrees of injury; 5: the plant was dead. The assay is classed as in vivo. How it is done: as §1, §2

The test system of assay [1] is two-spotted mite (adults and nymphal stages). Put plainly: Mite Foliage Spray Test (adults and nymphs). The format is in vivo, Tetranychus urticae (Koch). Also noted: key to Miticidal, Adult: A: Excellent Control; B: Partial Control; No Control. Conditions: for Miticidal, Adult: Table II, mortality count after four days; for LC50: Tetranychus urticae, foliar, Table III, ppm required for a 50 percent kill of mites, read-out: Miticidal LD50, Adult. How it is done:
Suspensions of the test compounds were prepared by dissolving one gram of compound in 50 milliliters of acetone in which had been dissolved 0.1 gram (10 percent of the weight of compound) of an alkylphenoxyethanol sufactant, as an emulsifying or dispersing agent. The resulting solution was mixed into 160 milliliters of water to give roughly 200 milliliters of a suspension containing the compound in finely divided form. The thus prepared stock suspension contained 0.5 percent by weight of compound. The test concentrations employed in the tests described below were obtained by diluting the stock suspension with water. The test procedures were as follows: Adults and nymphal stages of the two-spotted mite (Tetranychus urticae (Koch)), reared on Tender-green beam plants at 80±5° F. and 50±5 percent relative humidity, were the tests organisms. Infested leaves from a stock culture were placed of the primary leaves of two bean plants six to eight inches in height, growing in a two-and-a-half inch clay pot. 150-200 Mites, a sufficient number for testing, transferred from the excised leaves to the fresh plants in a period of twenty-four hours. Following the twenty-four hour transfer period, the excised leaves were removed from the infested plants. The test compounds were formulated by diluting the stock suspension with water to provide suspensions containing the desired amount of test compound per million parts of final formulation. The potted plants (one pot per compound) were placed on a revolving turntable and sprayed with 100-110 milliliters of tests compound formulation by use of a DeVilbis spray gun set at 40 psi, air pressure. This application, which lasted 30 seconds, was sufficient to wet the plants to run-off. As a control, 100-110 milliliters of a water solution containing acetone and emulsifier in the same concentrations as the test compound formulation, but containing no test compound, were also sprayed on infested plants. The sprayed plants were held at 80±5° F. and 50±5 percent relative humidity for four days, after which, a mortality count of motile forms was made on the leaves of the test plants. Any individual which was capable of locomotion upon prodding was considered living. In these tests the pesticidal activity of the compounds against mites and mite eggs was rated as follows: Tests were conducted in accordance with the procedures given at pages 17 to 21 supra. The results are expressed in the same manner as used in Table II, except with respect to miticidal activity. For mite adult and mite egg comparison purposes, results are given in parts per million (ppm) required for a 50 percent kill of mites or eggs, respectively.

The test system of the next assay is Soybean. Put plainly: Post-emergent herbicidal test, soybean. The format is in vivo. Also noted: key: 1: no perceptible injury; 2: intermediate degrees of injury; 3: intermediate degrees of injury; 4: intermediate degrees of injury; 5: the plant was dead. Conditions: 2500 parts per million, after ten days; for Post-emergent Herbicidal, Soybean: Table II; for Post Emergent Herbicidal, Soybean: Table III. How it is done:
as §1, §2

Consider `CCCCC(CC)C(=O)OC1=C(c2cc(C)ccc2C)C(=O)C2CCCCC12` (stereo not drawn) [Compound 30, 3-(2-ethylhexanoyloxy)-2-(2',5'-dimethylphenyl)-4,5,6,7,8,9-hexahydro-2-indenone], for which the “Pre-emergent Herbicidal, Rye” value in the assay with Perennial rye grass (Table II) is 1. For the same compound, the “Post-emergent Herbicidal, Tomato” value with Tomato came out at 1. Moreover, the “Post-emergent Herbicidal, Cotton” value in the assay on Cotton was 1. Also, the “Miticidal, Adult” value in assay [1] is given as “A”. Also, in the assay with Soybean, the “Post-emergent Herbicidal, Soybean” value was found to be 1.

As to `Cc1ccc(C)c(C2=C(OC(=O)C(C)(C)C)C3CCCCC3C2=O)c1` (stereo not drawn) [Compound 31], the “Pre-emergent Herbicidal, Rye” value in the assay with Perennial rye grass (Table II) is given as 1. In addition, the “Post-emergent Herbicidal, Tomato” value in the assay on Tomato turned out to be 1. Also, the “Post-emergent Herbicidal, Cotton” value with Cotton is listed as 1. Further, in assay [1], the “Miticidal, Adult” value is listed as “A”. In addition, in the assay on Soybean, the “Post-emergent Herbicidal, Soybean” value was 2.

In the case of `CCCCCCCCCC(=O)OC1=C(c2cc(C)ccc2C)C(=O)C2CCCCC12` (stereo not drawn) [Compound 32], the “Pre-emergent Herbicidal, Rye” value in the assay with Perennial rye grass (Table II) is 1. Moreover, the “Post-emergent Herbicidal, Tomato” value in the assay with Tomato was 1. In the assay on Cotton, the “Post-emergent Herbicidal, Cotton” value stood at 1. In addition, in assay [1], the “Miticidal, Adult” value is “A”. Also, the “Post-emergent Herbicidal, Soybean” value in the assay with Soybean was found to be 1.

For the compound `CCCCCCCCCCCCCCCC(=O)OC1=C(c2cc(C)ccc2C)C(=O)C2CCCCC12` (stereo not drawn) [Compound 33], in the assay with Perennial rye grass (Table II), the “Pre-emergent Herbicidal, Rye” value amounted to 1. Further, in the assay with Tomato, the “Post-emergent Herbicidal, Tomato” value is reported as 1. Further, the “Post-emergent Herbicidal, Cotton” value with Cotton is listed as 1. Also, in assay [1], the “Miticidal, Adult” value is “A”. Besides, in the assay on Soybean, the “Post-emergent Herbicidal, Soybean” value came out at 1.

Take `CCCCCCCCCC(=O)OC1=C(c2ccccc2C)C(=O)C2CCCCC12` (stereo not drawn) [drawing 15]: in the assay on Perennial rye grass (Table III), the “Pre-emergent Herbicidal, Rye” value came to 5. In the assay on Tomato, the “Post Emergent Herbicidal, Tomato” value turned out to be 1. The “Post Emergent Herbicidal, Cotton” value in the assay on Cotton was 3. In addition, in assay [1], the LC50 was found to be 2 µg/mL (≈ 5.04 µM). In addition, in the assay on Soybean, the “Post Emergent Herbicidal, Soybean” value is listed as 3.

`CCCCCCCCCCCCCCCC(=O)OC1=C(c2ccccc2C)C(=O)C2CCCCC12` (stereo not drawn) [drawing 17]: the “Pre-emergent Herbicidal, Rye” value in the assay on Perennial rye grass (Table III) was determined as 4. In addition, in the assay with Tomato, the “Post Emergent Herbicidal, Tomato” value came out at 1. For the same compound, the “Post Emergent Herbicidal, Cotton” value in the assay on Cotton is given as 2. In addition, in assay [1], the LC50 was determined as 20 µg/mL (≈ 41.6 µM). Besides, the “Post Emergent Herbicidal, Soybean” value in the assay with Soybean worked out at 2.

As for `CCCCCCCCCC(=O)OC1=C(c2cc(C)ccc2C)C(=O)C2CCCCC12` (stereo not drawn) [drawing 19], the “Pre-emergent Herbicidal, Rye” value in the assay with Perennial rye grass (Table III) is 1. The “Post Emergent Herbicidal, Tomato” value in the assay on Tomato is recorded as 1. Also, the “Post Emergent Herbicidal, Cotton” value in the assay on Cotton is listed as 1. Moreover, the LC50 in assay [1] was determined as 25 µg/mL (≈ 60.9 µM). In addition, the “Post Emergent Herbicidal, Soybean” value in the assay with Soybean came out at 1.

As for `CCCCC(CC)C(=O)OC1=C(c2ccccc2C)C(=O)CC1` (stereo not drawn) [drawing 21], the “Pre-emergent Herbicidal, Rye” value with Perennial rye grass (Table III) stood at 5. Also, the “Post Emergent Herbicidal, Tomato” value with Tomato is 2. For the same compound, the “Post Emergent Herbicidal, Cotton” value with Cotton is 2. Further, in assay [1], the LC50 worked out at 220 µg/mL (≈ 700 µM). Further, the “Post Emergent Herbicidal, Soybean” value in the assay with Soybean stood at 2.

On to `CCCCC(CC)C(=O)OC1=C(c2ccccc2C)C(=O)C2CCCCC12` (stereo not drawn) [drawing 22], for which the “Pre-emergent Herbicidal, Rye” value in the assay on Perennial rye grass (Table III) was determined as 3. In addition, the “Post Emergent Herbicidal, Tomato” value in the assay with Tomato is reported as 1. Besides, the “Post Emergent Herbicidal, Cotton” value with Cotton turned out to be 2. In assay [1], the LC50 stood at 7 µg/mL (≈ 19 µM). For the same compound, the “Post Emergent Herbicidal, Soybean” value with Soybean amounted to 2.

As for `Cc1ccccc1C1=C(OC(=O)C(C)(C)C)C2CCCCC2C1=O` (stereo not drawn) [drawing 24], the “Pre-emergent Herbicidal, Rye” value in the assay on Perennial rye grass (Table III) came out at 5. Moreover, the “Post Emergent Herbicidal, Tomato” value with Tomato was determined as 1. Moreover, in the assay on Cotton, the “Post Emergent Herbicidal, Cotton” value worked out at 3. Besides, the LC50 in assay [1] was found to be 15 µg/mL (≈ 46 µM). Also, the “Post Emergent Herbicidal, Soybean” value in the assay with Soybean is recorded as 3.

As to `CCCCCCCCCC(=O)OC1=C(c2ccccc2C)C(=O)c2ccccc21` [reference compound], the “Pre-emergent Herbicidal, Rye” value with Perennial rye grass (Table III) came out at 1. In addition, the “Post Emergent Herbicidal, Tomato” value in the assay on Tomato is listed as 1. For the same compound, the “Post Emergent Herbicidal, Cotton” value in the assay with Cotton is 1. Also, the LC50 in assay [1] was 500 µg/mL (≈ 1280 µM). Also, the “Post Emergent Herbicidal, Soybean” value in the assay on Soybean was 0.

`CCCCCCCCCCCCCCCC(=O)OC1=C(c2ccccc2C)C(=O)c2ccccc21` [reference compound]: in the assay on Perennial rye grass (Table III), the “Pre-emergent Herbicidal, Rye” value worked out at 1. For the same compound, the “Post Emergent Herbicidal, Tomato” value with Tomato is on record as 1. The “Post Emergent Herbicidal, Cotton” value with Cotton was determined as 1. The LC50 in assay [1] turned out to be 500 µg/mL (≈ 1050 µM). In addition, in the assay on Soybean, the “Post Emergent Herbicidal, Soybean” value was 0.

For `CCCCCCCCCC(=O)OC1=C(c2cc(C)ccc2C)C(=O)c2ccccc21` [reference compound], in the assay on Perennial rye grass (Table III), the “Pre-emergent Herbicidal, Rye” value is 1. Further, the “Post Emergent Herbicidal, Tomato” value in the assay on Tomato turned out to be 1. Further, the “Post Emergent Herbicidal, Cotton” value with Cotton turned out to be 1. For the same compound, in assay [1], the LC50 was determined as 500 µg/mL (≈ 1240 µM). For the same compound, the “Post Emergent Herbicidal, Soybean” value with Soybean is listed as 0.

`CCCCC(CC)C(=O)OC1=C(c2ccccc2C)C(=O)c2ccccc21` (stereo not drawn) [reference compound]: the “Pre-emergent Herbicidal, Rye” value in the assay on Perennial rye grass (Table III) came out at 1. For the same compound, the “Post Emergent Herbicidal, Tomato” value in the assay on Tomato stood at 1. In addition, in the assay on Cotton, the “Post Emergent Herbicidal, Cotton” value turned out to be 1. For the same compound, the LC50 in assay [1] turned out to be 500 µg/mL (≈ 1380 µM). Moreover, the “Post Emergent Herbicidal, Soybean” value in the assay with Soybean was determined as 0.

For `Cc1ccccc1C1=C(OC(=O)C(C)(C)C)c2ccccc2C1=O` [reference compound], the “Pre-emergent Herbicidal, Rye” value with Perennial rye grass (Table III) is listed as 2. In addition, the “Post Emergent Herbicidal, Tomato” value in the assay on Tomato was 1. Moreover, the “Post Emergent Herbicidal, Cotton” value in the assay with Cotton is 1. The LC50 in assay [1] is 100 µg/mL (≈ 312 µM). In addition, the “Post Emergent Herbicidal, Soybean” value in the assay on Soybean is 0.

The record behind these values is patent US4551547A, “Biocidal 2-aryl-1, 3-cyclopentanedione enol ester compounds” (Union Carbide Corporation, priority 1983, dated 1985).
